The record followed here is ChEMBL document CHEMBL1125454, “Synthesis and evaluation of a new series of mechanism-based aromatase inhibitors” (J Med Chem, 1992).

Values joined by “and” are separate entries in the source; they are usually repeats but may differ in a detail not shown here. Equal values may be shown once.

Series [1] can be described thus: kinact was determined; NTD = Not time dependent. Format: ADME.
Series [2] has as its target T1, Aromatase (Homo sapiens, UniProt P11511).
T1 sequence (P11511 whole entry): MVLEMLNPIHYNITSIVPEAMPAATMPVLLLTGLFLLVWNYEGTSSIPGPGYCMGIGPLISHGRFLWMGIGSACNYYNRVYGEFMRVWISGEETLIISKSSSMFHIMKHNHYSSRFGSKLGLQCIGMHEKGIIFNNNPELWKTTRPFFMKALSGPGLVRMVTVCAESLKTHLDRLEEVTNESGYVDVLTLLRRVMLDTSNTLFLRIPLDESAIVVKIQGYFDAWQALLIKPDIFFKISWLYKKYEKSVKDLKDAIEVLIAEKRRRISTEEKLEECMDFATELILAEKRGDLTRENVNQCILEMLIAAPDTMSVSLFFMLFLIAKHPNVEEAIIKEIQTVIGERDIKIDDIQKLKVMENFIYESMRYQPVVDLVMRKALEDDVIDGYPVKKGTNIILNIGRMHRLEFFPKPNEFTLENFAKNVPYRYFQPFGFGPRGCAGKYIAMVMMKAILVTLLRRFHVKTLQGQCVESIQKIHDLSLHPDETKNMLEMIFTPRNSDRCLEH
In words: Inhibition of cytochrome P450 19A1.

Series [3] in a line: Half-life period of the compound; NTD = Not time dependent. Type of series: ADME.
In series [4] the target is T1, Aromatase. Kind of series: Inhibition of Cytochrome P450 19A1.
Series [5] has as its target T1, Aromatase. In words: Inhibition constant for human placental Cytochrome P450 19A1.
A short description of series [6]: kinact was determined. Type of series: ADME.
Series [7] has as its target T1, Aromatase. Kind of series: Percent cytochrome P450 19A1 activity remaining after pretreatment with 1 uM androstenedione (t=0 control).
Series [8] has as its target T1, Aromatase. Kind of series: Percent cytochrome P450 19A1 activity remaining after 5 minute pretreatment with 1 uM androstenedione.
The target of series [9] is T1, Aromatase. In words: Percent cytochrome P450 19A1 activity remaining after 5 minute pretreatment with 10 mM beta-mercaptoethanol.
Series [10] concerns the target T1, Aromatase. Kind of series: Percent cytochrome P450 19A1 activity remaining after 10 minute pretreatment with 1 uM androstenedione.
In series [11] the target is T1, Aromatase. Kind of series: Percent cytochrome P450 19A1 activity remaining after 5 minute pretreatment with 0.5 uM androstenedione.
Series [12] deals with T1, Aromatase. In words: Percent cytochrome P450 19A1 activity remaining after 10 minute pretreatment with 0.5 uM androstenedione.
Series [13] deals with T1, Aromatase. Kind of series: Inhibition constant for human placental cytochrome P450 19A1.
For series [14], the target named is T1, Aromatase. In words: Percent cytochrome P450 19A1 activity remaining after 10 minute pretreatment with 0.5 mM beta-mercaptoethanol.
Series [15] has as its target T1, Aromatase. In words: Percent cytochrome P450 19A1 activity remaining after pretreatment with 0.5 uM androstenedione (t=0 control).

In the case of `C[C@]12CCC(=O)C(SC(F)F)=C1CC[C@@H]1[C@@H]2CC[C@]2(C)C(=O)CC[C@@H]12`, in series [1], the K inact entry was “Not time-dependent”. The midpoint of inhibition on Aromatase [2], the IC50, lay at 2.7 µM. The T1/2 entry in [3] is given as “Not time-dependent”.
`C[C@]12CCC(=O)C(SCC#N)=C1CC[C@@H]1[C@@H]2CC[C@]2(C)C(=O)CC[C@@H]12`: it took 3.7 µM to reach half-maximal inhibition on Aromatase [4] (IC50). Also, the Ki (as a rule, a measure of affinity in units of concentration, obtained from inhibition or displacement) at Aromatase [5] is 0.169 µM. The K inact in series [6] is listed as 1.2 10e-3 s-1.
Take `C[C@]12CCC(=O)C(O)=C1CCC1C2=CC[C@]2(C)C(=O)CCC12` (stereo partly specified): the half-maximal inhibitory concentration (IC50) (as a rule, the concentration that inhibits the measured activity by half) against Aromatase [2] came out at 0.35 µM.
`C[C@]12CCC(=O)C(S)=C1CCC1C2CC[C@]2(C)C(=O)CCC12` (stereo partly specified): at Aromatase [4], it took 3.5 µM to reach half-maximal inhibition (IC50).
With `COCOC1=C2CCC3C(CC[C@]4(C)C(=O)CCC34)[C@@]2(C)CCC1=O` (stereo partly specified), it took 4.4 µM to reach half-maximal inhibition at Aromatase [2] (IC50). The K inact result in series [6] is “Not time-dependent”.
Taken in the same sequence, the figures for `COCSC1=C2CCC3C(CC[C@]4(C)C(=O)CCC34)[C@@]2(C)CCC1=O` (stereo partly specified) were 10 µM and “Not time-dependent”.
Take `CSC1=C2CCC3C(CC[C@]4(C)C(=O)CCC34)[C@@]2(C)CCC1=O` (stereo partly specified): the K inact result in series [1] is on record as “Not time-dependent”. This compound yielded an IC50 against Aromatase [2] of 4.4 µM. Further, the T1/2 entry in series [3] is on record as “Not time-dependent”.
Consider `CSCSC1=C2CCC3C(CC[C@]4(C)C(=O)CCC34)[C@@]2(C)CCC1=O` (stereo partly specified), for which the K inact entry in series [1] is listed as “Not time-dependent”. For the same compound, half-maximal inhibition on Aromatase [2] (IC50) required 1.2 µM. Besides, in [3], the T1/2 entry was “Not time-dependent”.
Regarding `C[C@]12CCC(=O)C(SCCl)=C1CCC1C2CC[C@]2(C)C(=O)CCC12` (stereo partly specified), the Activity at Aromatase [7] is 9.8%; at Aromatase [8], 32% and 36.8%; at Aromatase [9], 5%; on Aromatase [10], 10.2%; at Aromatase [11], 70%; at Aromatase [12] it was 36.5% and 46%. The Activity worked out at 59% on Aromatase [14] and 49% on Aromatase [15]. In addition, half-maximal inhibition against Aromatase [2] (IC50) was put at 0.94 µM. This compound came in with a Ki on Aromatase [13] of 0.03 µM. In addition, in [6], the K inact is 3.8 10e-3 s-1.
In turn, `C[C@]12CCC(=O)C(S)=C1CCC1C2=CC[C@]2(C)C(=O)CCC12` (stereo partly specified) had an IC50 against Aromatase [2] of 3.8 µM. On Aromatase [13], this compound displayed a Ki of 0.072 µM. Further, the K inact in series [6] is 3.9 10e-3 s-1.
Take `C[C@]12CCC(=O)C(SCF)=C1CCC1C2CC[C@]2(C)C(=O)CCC12` (stereo partly specified): the midpoint of inhibition at Aromatase [4], the IC50, lay at 0.8 µM. This compound displayed an inhibition constant Ki at Aromatase [5] of 0.03 µM. The K inact in series [6] is 3.1 10e-3 s-1.
On Aromatase [2], `C[C@]12CCC(=O)C(SCCl)=C1CCC1C2=CC[C@]2(C)C(=O)CCC12` (stereo partly specified) gave an IC50 of 0.86 µM. Besides, the Ki on Aromatase [13] worked out at 0.027 µM. For the same compound, the K inact in series [6] is 4.8 10e-3 s-1.
On the same counts, the results for `C[C@]12CCC(=O)C(O)=C1CC[C@@H]1[C@@H]2CC[C@]2(C)C(=O)CC[C@@H]12` [FORMESTANE] are 0.37 µM, 0.027 µM and 2.3 10e-3 s-1.
